By IC50 is commonly meant the concentration that inhibits the measured activity by half. A lower IC50 goes with greater potency in that assay. One may read the half-life as the time needed for the level to fall by half in the phase considered.

For one data set, the target named is ErbB4 (Homo sapiens, UniProt Q15303). The conditions noted are these: ErbB4, cell-free; means ± SD. The protocol:
(§1) The tyrosine kinase activities were determined using enzyme-linked immunosorbant assay (ELISA). The serine/threonine kinase activities were detected by Caliper Mobility Shift Assay on EZ Reader (Caliper Life Sciences, MA) according to the instruction.
(§2) The tyrosine kinase activities were determined in 96-well ELISA plates (Corning, NY, USA) precoated with 20 μg/mL Poly (Glu,Tyr)4:1. First, 80 μL of 5 μM ATP solution diluted in kinase reaction buffer (50 mM HEPES pH 7.4, 20 mM MgCl2, 0.1 mM MnCl2, 0.2 mM Na3VO4, 1 mM DTT) was added to each well. […] Subsequently, the kinase reaction was initiated by the addition of purified tyrosine kinase proteins diluted in 10 μL of kinase reaction buffer solution. Experiments at each concentration were performed in duplicate. After incubation for 60 min at 37 °C, the plate was washed three times with phosphate buffered saline (PBS) containing 0.1% Tween 20 (T-PBS). Next, 100 μL anti-phosphotyrosine antibody (PY99, 1:500 dilution) diluted in T-PBS containing 5 mg/mL BSA was added. After 30 min incubation at 37 °C, the plate was washed three times as before. Horseradish peroxidase-conjugated goat anti-mouse IgG (100 μL) diluted 1:2000 in T-PBS containing 5 mg/ml BSA was added. The plate was reincubated at 37 °C for 30 min, and then washed with PBS.

Another data set concerns the target Abl (Homo sapiens, UniProt P00519). Particulars: cell-free. The protocol: as §1
(§3) The kinase domain of EGFR, ErbB-2, IGF1R, VEGFR2, FGFR1, PDGFRα, c-Src, c-Met, RON, c-Kit, EphA2 and EphB2 were expressed using the Bac-to-Bac^TM baculovirus expression system (Invitrogen, Carlsbad, CA, USA) and purified on Ni-NTA columns (QIAGEN Inc., Valencia, CA, USA). VEGFR1, PDGFRβ and c-Abl were purchased from Upstate Biotechnology Inc. (Charlottesville, Virginia, USA). […] EGF was purchased from R&D, Minneapolis, […]. Poly(Glu-Tyr)(4:1), the substrate of tyrosine kinase, was from Sigma-Aldrich Corp. St. Louis, MO, USA.
as §2

For another data set, the target named is EGFR (Homo sapiens, UniProt P00533). Particulars: cell-free, means ± SD. As to the method:
as §1, §3, §2

The target in the next data set is EphA2 (Homo sapiens, UniProt P29317). The conditions noted are these: EphA2, cell-free. As to the method: as §1, §3, §2
The target of a further data set is ErbB2 (Homo sapiens, UniProt P04626). Particulars: ErbB2, cell-free; means ± SD. As to the method: as §1, §3, §2
The next data set deals with IGF1R (Homo sapiens, UniProt P08069). Particulars: cell-free. The protocol: as §1, §3, §2
In the next data set the target is JAK2 (Homo sapiens, UniProt O60674). Particulars: JAK2, cell-free. The protocol:
as §1, §3, §2

For a further data set, the target named is KDR (Homo sapiens, UniProt P35968). Particulars: cell-free. As to the method: as §1, §3, §2
The next data set concerns the target PDGFRα (Homo sapiens, UniProt P16234). The conditions noted are these: cell-free. As to the method: as §1, §3, §2
The target in the next data set is RON (Homo sapiens, UniProt Q04912). The conditions noted are these: cell-free. The protocol:
as §1, §3, §2

The target of the next data set is Tie2 (Homo sapiens, UniProt Q02763). The conditions noted are these: Tie2, cell-free. As to the method: as §1, §3, §2
For a further data set, the target named is c-Kit (Homo sapiens, UniProt P10721). The conditions noted are these: cell-free. As to the method: as §1, §3, §2
For the next data set, the target named is c-Src (Homo sapiens, UniProt P12931). Particulars: cell-free. The protocol: as §1, §3, §2
Another data set has as its system NIH3T3 parental cells. Kind of data set: Cell proliferation SRB assay. The format is cell-based. The conditions noted are these: 72 h, compared with NIH3T3-EGFR T790M/L858R. An excerpt:
SK-OV-3, BT474, MDA-MB-468, Calu-3, A-549, NCI-H23, NCI-H1975 and NIH3T3 cells were obtained from the American Type Culture Collection (Rockville, MD). HO-8910 cells were obtained from the cell bank of the Chinese Academy of Sciences. MCF-7 cells were obtained from the Japanese Foundation of Cancer Research. NIH3T3 cells that overexpressed EGFR T790M/L858R mutant (NIH3T3-EGFR T790M/L858R) were constructed and maintained in our laboratory. All cell lines were maintained in strict accordance with the supplier's instructions and established procedures.
Cell viability was determined using sulforhodamine B assay. IC50 values were determined based on the results of three independent experiments. […] Whole-cell lysates were assayed for total EGFR and phosphorylation of EGFR by immunoblotting. A representative anti-GAPDH immunoblot is shown as a loading control. […] Cell viability was determined using sulforhodamine B assay.
Cell proliferation was evaluated using the SRB (Sulforhodamine B) assay as previously described. Briefly, cells were seeded into 96-well plates and grown for 24 h. […] After cells were air-dried, protein-bound dye was dissolved in 150 μL of 10 mmol/L Tris base for 5 min and measured at 515 nm using a multiwell spectrophotometer (VERSAmax, Molecular Devices). […] The IC50 value was obtained by the Logit method and was determined from the results of at least 3 independent tests.
(In SRB staining, fixed cells bind dye roughly in proportion to their protein.)

Data set [1] can be described thus: Pharmacokinetics after single oral dose. Particulars: rat, in vivo; rats, single oral dose 90 mg/kg; unpublished data.

c-Kit, sequence (P10721 589-937 limits assumed): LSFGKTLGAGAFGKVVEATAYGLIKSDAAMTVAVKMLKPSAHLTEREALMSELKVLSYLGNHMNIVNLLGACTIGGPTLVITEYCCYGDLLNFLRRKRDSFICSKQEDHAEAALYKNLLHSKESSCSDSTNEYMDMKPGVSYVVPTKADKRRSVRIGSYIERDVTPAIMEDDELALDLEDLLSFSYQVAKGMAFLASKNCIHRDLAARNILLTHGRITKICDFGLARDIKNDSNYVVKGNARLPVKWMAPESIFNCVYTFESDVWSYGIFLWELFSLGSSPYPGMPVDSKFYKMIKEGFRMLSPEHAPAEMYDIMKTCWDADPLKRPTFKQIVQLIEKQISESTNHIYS
JAK2, sequence (O60674 whole entry): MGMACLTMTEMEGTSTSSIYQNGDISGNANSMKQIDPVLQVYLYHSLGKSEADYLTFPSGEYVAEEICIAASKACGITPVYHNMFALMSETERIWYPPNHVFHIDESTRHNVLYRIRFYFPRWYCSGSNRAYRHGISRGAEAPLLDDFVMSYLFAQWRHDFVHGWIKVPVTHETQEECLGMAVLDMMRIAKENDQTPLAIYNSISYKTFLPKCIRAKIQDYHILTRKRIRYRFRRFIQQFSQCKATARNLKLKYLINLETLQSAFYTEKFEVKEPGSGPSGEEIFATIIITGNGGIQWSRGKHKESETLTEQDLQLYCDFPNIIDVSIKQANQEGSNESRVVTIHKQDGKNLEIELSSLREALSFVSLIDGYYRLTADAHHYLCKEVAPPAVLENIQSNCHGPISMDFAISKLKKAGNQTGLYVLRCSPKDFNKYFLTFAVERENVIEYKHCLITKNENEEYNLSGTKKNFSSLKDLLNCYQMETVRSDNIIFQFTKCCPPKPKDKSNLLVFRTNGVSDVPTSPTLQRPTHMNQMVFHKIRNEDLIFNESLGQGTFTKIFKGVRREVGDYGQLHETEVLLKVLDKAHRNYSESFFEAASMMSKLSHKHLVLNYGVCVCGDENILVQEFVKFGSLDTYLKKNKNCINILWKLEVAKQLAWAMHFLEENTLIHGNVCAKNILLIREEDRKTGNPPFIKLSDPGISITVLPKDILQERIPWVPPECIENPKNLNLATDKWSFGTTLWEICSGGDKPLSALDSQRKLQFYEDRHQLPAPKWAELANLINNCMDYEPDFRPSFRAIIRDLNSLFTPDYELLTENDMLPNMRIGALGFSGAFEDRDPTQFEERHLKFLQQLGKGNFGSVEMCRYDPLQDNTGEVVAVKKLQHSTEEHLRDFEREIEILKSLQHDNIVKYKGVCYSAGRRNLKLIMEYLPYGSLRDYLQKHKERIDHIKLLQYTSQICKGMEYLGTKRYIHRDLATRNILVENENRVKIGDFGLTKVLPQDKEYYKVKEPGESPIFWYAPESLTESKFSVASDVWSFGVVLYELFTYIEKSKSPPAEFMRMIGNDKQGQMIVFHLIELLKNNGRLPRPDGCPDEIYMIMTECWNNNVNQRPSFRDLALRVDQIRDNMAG
ErbB4, sequence (Q15303 26-1308, species assumed): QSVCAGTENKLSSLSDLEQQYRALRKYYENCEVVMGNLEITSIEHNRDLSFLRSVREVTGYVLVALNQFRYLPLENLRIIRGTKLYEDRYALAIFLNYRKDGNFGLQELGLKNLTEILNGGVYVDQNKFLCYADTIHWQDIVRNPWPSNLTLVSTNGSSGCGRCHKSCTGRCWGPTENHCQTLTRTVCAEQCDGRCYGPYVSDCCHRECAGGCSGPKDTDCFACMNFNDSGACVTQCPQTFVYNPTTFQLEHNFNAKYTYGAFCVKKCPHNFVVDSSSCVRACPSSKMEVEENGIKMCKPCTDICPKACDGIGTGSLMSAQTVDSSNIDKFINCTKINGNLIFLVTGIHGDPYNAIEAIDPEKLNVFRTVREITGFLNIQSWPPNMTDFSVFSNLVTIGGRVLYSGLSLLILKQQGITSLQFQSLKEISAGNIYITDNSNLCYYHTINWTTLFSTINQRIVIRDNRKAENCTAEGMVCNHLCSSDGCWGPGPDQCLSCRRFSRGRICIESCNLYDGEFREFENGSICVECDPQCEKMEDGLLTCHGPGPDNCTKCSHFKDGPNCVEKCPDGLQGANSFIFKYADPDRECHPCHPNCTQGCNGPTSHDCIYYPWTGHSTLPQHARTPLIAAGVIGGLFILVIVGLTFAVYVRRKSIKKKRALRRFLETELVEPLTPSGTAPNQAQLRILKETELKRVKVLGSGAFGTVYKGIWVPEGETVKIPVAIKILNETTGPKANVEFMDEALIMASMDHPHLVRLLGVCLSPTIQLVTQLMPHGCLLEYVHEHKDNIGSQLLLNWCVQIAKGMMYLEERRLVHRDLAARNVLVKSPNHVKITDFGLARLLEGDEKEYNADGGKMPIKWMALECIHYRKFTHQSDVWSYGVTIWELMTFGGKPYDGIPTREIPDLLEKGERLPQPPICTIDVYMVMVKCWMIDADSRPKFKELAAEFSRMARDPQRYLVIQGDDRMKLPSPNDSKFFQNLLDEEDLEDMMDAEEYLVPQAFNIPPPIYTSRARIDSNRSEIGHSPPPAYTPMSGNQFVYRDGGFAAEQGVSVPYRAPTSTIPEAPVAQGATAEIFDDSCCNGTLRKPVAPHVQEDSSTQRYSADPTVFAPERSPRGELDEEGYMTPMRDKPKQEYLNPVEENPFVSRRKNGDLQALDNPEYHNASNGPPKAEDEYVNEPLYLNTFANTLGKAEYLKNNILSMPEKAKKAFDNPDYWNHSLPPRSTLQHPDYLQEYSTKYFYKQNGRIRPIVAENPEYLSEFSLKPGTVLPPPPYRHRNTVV
Tie2, sequence (Q02763 23-1124): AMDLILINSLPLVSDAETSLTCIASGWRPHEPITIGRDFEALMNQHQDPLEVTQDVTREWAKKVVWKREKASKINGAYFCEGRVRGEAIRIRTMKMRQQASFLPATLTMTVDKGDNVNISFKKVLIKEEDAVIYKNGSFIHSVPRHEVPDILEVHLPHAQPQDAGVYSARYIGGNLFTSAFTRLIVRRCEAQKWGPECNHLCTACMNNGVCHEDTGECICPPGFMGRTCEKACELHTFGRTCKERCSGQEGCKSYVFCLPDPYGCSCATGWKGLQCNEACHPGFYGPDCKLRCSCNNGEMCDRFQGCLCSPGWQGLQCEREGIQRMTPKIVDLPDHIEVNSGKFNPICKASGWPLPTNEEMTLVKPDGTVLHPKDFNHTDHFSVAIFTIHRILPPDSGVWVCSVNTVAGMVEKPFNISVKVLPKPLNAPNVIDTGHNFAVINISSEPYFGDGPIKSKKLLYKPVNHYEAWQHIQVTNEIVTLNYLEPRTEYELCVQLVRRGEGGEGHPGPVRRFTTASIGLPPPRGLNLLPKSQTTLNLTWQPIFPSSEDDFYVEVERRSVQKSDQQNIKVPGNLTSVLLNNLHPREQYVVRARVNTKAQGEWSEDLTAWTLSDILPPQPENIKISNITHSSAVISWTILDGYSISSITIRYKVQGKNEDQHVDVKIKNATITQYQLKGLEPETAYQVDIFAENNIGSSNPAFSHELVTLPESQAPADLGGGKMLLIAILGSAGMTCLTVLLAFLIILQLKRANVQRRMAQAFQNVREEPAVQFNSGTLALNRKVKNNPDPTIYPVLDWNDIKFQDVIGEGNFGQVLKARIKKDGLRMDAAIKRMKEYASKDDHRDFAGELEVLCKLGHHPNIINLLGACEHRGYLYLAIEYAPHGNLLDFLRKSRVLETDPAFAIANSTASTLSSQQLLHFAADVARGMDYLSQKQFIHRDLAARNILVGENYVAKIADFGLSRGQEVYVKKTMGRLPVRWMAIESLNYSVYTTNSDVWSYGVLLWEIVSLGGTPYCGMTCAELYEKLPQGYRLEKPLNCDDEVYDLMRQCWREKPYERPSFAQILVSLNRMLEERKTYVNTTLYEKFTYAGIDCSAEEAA
PDGFRα, sequence (P16234 593-954 limits assumed): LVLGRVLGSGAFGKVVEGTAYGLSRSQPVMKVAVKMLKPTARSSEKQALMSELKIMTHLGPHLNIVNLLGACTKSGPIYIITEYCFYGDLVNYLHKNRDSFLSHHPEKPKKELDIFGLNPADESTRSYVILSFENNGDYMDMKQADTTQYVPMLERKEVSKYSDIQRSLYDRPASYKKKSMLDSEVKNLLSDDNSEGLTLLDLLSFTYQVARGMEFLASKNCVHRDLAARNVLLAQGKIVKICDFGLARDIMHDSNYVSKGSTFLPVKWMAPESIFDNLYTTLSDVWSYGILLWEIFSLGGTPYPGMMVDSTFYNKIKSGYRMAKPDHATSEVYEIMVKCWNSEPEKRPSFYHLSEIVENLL
ErbB2, sequence (P04626 720-987 limits assumed): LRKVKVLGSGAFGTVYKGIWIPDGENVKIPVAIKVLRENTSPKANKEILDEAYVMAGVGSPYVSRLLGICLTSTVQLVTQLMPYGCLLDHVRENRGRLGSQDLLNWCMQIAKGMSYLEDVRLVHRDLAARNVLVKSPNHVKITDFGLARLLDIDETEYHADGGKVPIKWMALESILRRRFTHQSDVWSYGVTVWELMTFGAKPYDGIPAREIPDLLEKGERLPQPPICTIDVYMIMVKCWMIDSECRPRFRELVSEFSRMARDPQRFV
EphA2, sequence (P29317 613-875 limits assumed): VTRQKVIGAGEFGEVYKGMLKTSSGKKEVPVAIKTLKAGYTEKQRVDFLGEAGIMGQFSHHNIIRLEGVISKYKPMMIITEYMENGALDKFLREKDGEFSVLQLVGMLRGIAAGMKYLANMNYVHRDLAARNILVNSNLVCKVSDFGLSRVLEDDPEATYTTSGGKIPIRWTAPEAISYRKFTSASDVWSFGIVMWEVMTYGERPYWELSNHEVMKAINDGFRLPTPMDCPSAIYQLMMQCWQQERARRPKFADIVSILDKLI
IGF1R, sequence (P08069 999-1274 limits assumed): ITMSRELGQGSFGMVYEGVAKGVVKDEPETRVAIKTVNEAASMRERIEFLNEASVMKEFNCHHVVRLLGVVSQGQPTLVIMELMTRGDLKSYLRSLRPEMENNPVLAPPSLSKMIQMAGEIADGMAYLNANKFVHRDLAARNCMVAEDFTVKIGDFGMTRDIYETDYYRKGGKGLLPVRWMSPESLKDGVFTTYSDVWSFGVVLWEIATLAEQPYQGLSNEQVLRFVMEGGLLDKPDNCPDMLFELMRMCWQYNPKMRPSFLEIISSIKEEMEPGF

Consider `C=CC(=O)Nc1ccc2ncnc(Nc3ccc(OCc4cccc(F)c4)c(Cl)c3)c2c1` [AST1306], for which the IC50 was 0.0008 ± 0.0003 µM against ErbB4; greater than 10 µM against Abl; 0.0005 ± 0.0002 µM at EGFR; greater than 10 µM against EphA2; 0.003 ± 0.0015 µM at ErbB2; greater than 10 µM against IGF1R. Moreover, the IC50 against JAK2, against KDR, on PDGFRα, against RON, on Tie2 and against c-Kit was greater than 10 µM throughout. At c-Src, this molecule yielded an IC50 greater than 10 µM. For the same molecule, the “inhibition of cell growth” value in the data set on NIH3T3 parental cells is recorded as “much less potent”. Also, in data set [1], the half-life is less than 3.6 h.

The values above are taken from paper PMC3138742 (PLoS ONE, 2011).
